Laboratory results reported in the NIST ThermoML archive (doi:10.1021/je2007549).
Numbers after ± are expanded uncertainties.

Assay: xn = mol fraction of the nth substance listed
Conditions: 101 kPa, Liquid; for electrical conductivity: Direct current cell with electrodes; for viscosity: Falling or rolling sphere viscometry; for mass density: Vibrating tube method

CCCC[P+](CCCC)(CCCC)CCCN.C[C@H](N)C(=O)[O-] [(3-aminopropyl)tributylphosphonium L-alaninate] + O
Conditions	electrical conductivity [S/m]	mass density [kg/m3]	viscosity [mPa·s]
298.15 K, x2 = 0	0.0141 ± 0.00028	986.75 ± 5.3	804.88 ± 79
298.15 K, x2 = 0.25	0.0244 ± 0.00049	988.47 ± 3.3	597.85 ± 53
298.15 K, x2 = 0.5	0.0337 ± 0.00067	991.4 ± 1.9	429.73 ± 34
298.15 K, x2 = 0.75	0.0647 ± 0.0013	999.98 ± 0.84	208.66 ± 13
303.15 K, x2 = 0	0.0209 ± 0.00042	983.72 ± 5.2	561.4 ± 50
303.15 K, x2 = 0.25	0.032 ± 0.00064	985.39 ± 3.3	417.93 ± 33
303.15 K, x2 = 0.5	0.0439 ± 0.00088	988.27 ± 1.8	304.2 ± 22
303.15 K, x2 = 0.75	0.0859 ± 0.0017	996.76 ± 0.83	150.37 ± 8.2
313.15 K, x2 = 0	0.032 ± 0.00064	977.65 ± 5.2	291.07 ± 21
313.15 K, x2 = 0.25	0.0487 ± 0.00097	979.18 ± 3.3	222.26 ± 15
313.15 K, x2 = 0.5	0.0703 ± 0.0014	982.01 ± 1.8	163.31 ± 9.4
313.15 K, x2 = 0.75	0.134 ± 0.0027	990.22 ± 0.83	83.45 ± 3.8
323.15 K, x2 = 0	0.0464 ± 0.00093	971.62 ± 5.1	164.61 ± 10
323.15 K, x2 = 0.25	0.0727 ± 0.0015	973.04 ± 3.2	127.07 ± 6.9
323.15 K, x2 = 0.5	0.105 ± 0.0021	975.81 ± 1.8	95.01 ± 4.6
323.15 K, x2 = 0.75	0.195 ± 0.0039	983.57 ± 0.82	50.38 ± 2.1
333.15 K, x2 = 0	0.0649 ± 0.0013	965.71 ± 5	106.7 ± 5.7
333.15 K, x2 = 0.25	0.101 ± 0.002	966.97 ± 3.2	78.92 ± 3.8
333.15 K, x2 = 0.5	0.147 ± 0.0029	969.57 ± 1.8	59.3 ± 2.6
333.15 K, x2 = 0.75	0.265 ± 0.0053	976.99 ± 0.81	32.59 ± 1.4
343.15 K, x2 = 0	0.0884 ± 0.0018	959.97 ± 5	65.96 ± 3.3
343.15 K, x2 = 0.25	0.142 ± 0.0028	960.89 ± 3.1	53.07 ± 2.4
343.15 K, x2 = 0.5	0.193 ± 0.0039	963.3 ± 1.8	39.29 ± 1.8
343.15 K, x2 = 0.75	0.334 ± 0.0067	970.15 ± 0.8	22.27 ± 0.95

CC(C)C[C@H](N)C(=O)[O-].CCCC[P+](CCCC)(CCCC)CCCN [(3-aminopropyl)tributylphosphonium L-leucinate] + O
Conditions	electrical conductivity [S/m]	mass density [kg/m3]	viscosity [mPa·s]
298.15 K, x2 = 0	0.008 ± 0.00016	971.86 ± 5.1	1227.9 ± 140
298.15 K, x2 = 0.25	0.0114 ± 0.00023	973.97 ± 3.2	920.24 ± 93
298.15 K, x2 = 0.5	0.0173 ± 0.00035	978.04 ± 1.8	599.52 ± 53
298.15 K, x2 = 0.75	0.0395 ± 0.00079	987.11 ± 0.82	244.81 ± 16
303.15 K, x2 = 0	0.0108 ± 0.00022	968.8 ± 5.1	855.26 ± 85
303.15 K, x2 = 0.25	0.0154 ± 0.00031	970.91 ± 3.2	629.98 ± 57
303.15 K, x2 = 0.5	0.0232 ± 0.00046	974.9 ± 1.8	407.91 ± 32
303.15 K, x2 = 0.75	0.0515 ± 0.001	983.89 ± 0.82	174.05 ± 10
313.15 K, x2 = 0	0.0185 ± 0.00037	962.68 ± 5	417.9 ± 34
313.15 K, x2 = 0.25	0.0254 ± 0.00051	964.75 ± 3.2	308.75 ± 23
313.15 K, x2 = 0.5	0.0362 ± 0.00072	968.61 ± 1.8	209.07 ± 13
313.15 K, x2 = 0.75	0.0795 ± 0.0016	977.44 ± 0.81	94.21 ± 4.5
323.15 K, x2 = 0	0.0291 ± 0.00058	956.54 ± 5	224.29 ± 15
323.15 K, x2 = 0.25	0.0379 ± 0.00076	958.56 ± 3.1	169.8 ± 10
323.15 K, x2 = 0.5	0.0515 ± 0.001	962.52 ± 1.8	116.62 ± 6
323.15 K, x2 = 0.75	0.116 ± 0.0023	970.88 ± 0.8	55.71 ± 2.4
333.15 K, x2 = 0	0.0414 ± 0.00083	950.54 ± 4.9	130.46 ± 7.4
333.15 K, x2 = 0.25	0.0542 ± 0.0011	952.54 ± 3.1	101.73 ± 5.2
333.15 K, x2 = 0.5	0.0735 ± 0.0015	956.26 ± 1.7	72.42 ± 3.3
333.15 K, x2 = 0.75	0.161 ± 0.0032	964.27 ± 0.8	35.35 ± 1.5
343.15 K, x2 = 0	0.0605 ± 0.0012	944.58 ± 4.8	81.01 ± 4.1
343.15 K, x2 = 0.25	0.0761 ± 0.0015	946.54 ± 3.1	65.08 ± 3.1
343.15 K, x2 = 0.5	0.104 ± 0.0021	949.99 ± 1.7	47.47 ± 2.1
343.15 K, x2 = 0.75	0.214 ± 0.0043	957.61 ± 0.79	23.97 ± 1
